These results are taken from patent US20050260730A1, “CDK2/cyclin A crystals and uses thereof” (priority 2003, published 2005).

Read-outs that look alike come from different tables or passages of the source. Non-standard residues stand in square brackets, D forms with d. Residues, ends and D or L forms follow the SMILES beside them. Phe(4-F) = N[C@@H](Cc1ccc(F)cc1)C(=O)O

For one assay, the target named is cyclin A (Homo sapiens, UniProt P20248). Briefly: Competitive cyclin A binding assay.
A further assay deals with CDK2/cyclin A (Homo sapiens, UniProt P20248). The experiment in a line: CDK2/cyclin A kinase activity assay. In kind it is biochemical.
The mark [1] stands for this setting: read-out: IC50 CDK2/cyclin A kinase activity.

Chain of cyclin A (P20248 whole entry): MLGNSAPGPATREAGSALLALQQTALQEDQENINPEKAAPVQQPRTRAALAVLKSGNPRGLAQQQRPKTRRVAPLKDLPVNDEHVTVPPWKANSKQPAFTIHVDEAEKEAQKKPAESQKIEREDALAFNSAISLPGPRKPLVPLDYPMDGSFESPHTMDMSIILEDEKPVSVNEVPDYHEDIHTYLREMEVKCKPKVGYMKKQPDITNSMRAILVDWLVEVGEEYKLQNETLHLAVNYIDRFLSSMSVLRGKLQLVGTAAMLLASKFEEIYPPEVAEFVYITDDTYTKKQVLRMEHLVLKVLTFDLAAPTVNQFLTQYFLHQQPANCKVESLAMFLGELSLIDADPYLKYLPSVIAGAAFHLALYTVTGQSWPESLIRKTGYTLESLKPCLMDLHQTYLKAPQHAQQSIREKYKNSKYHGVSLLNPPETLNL

As for `CC(C)C[C@H](NC(=O)[C@H](CCCNC(=N)N)NC(=O)[C@@H](N)CCCNC(=N)N)C(=O)N[C@@H](Cc1ccc(F)cc1)C(N)=O` [SEQ ID NO: 29, H-Arg-Arg-Leu-—-(p-F-Phe)-NH2] (H-RRL[Phe(4-F)]-NH2), the IC50 on cyclin A came out at 19 µM; on CDK2/cyclin A (setting [1]), 50 µM.
In the same order, the values of `CC(C)C[C@H](NC(=O)[C@H](CCCNC(=N)N)NC(=O)[C@@H](N)CCCNC(=N)N)C(=O)N[C@@H](Cc1ccccc1)C(N)=O` [SEQ ID NO: 20, H-Arg-Arg-Leu-Phe-NH2] (H-RRLF-NH2) are 8.1 µM and > 50 µM.
For `CC(=O)N[C@@H](CCCN=C(N)N)C(=O)N[C@@H](CCCN=C(N)N)C(=O)N[C@@H](CC(C)C)C(=O)N[C@@H](CC(N)=O)C(=O)N[C@@H](Cc1ccccc1)C(N)=O` [SEQ ID NO: 30, Ac-Arg-Arg-Leu-Asn-Phe-NH2], the IC50 at CDK2/cyclin A was > 50 µM.
